# Data: article PMC8668186, “Molecular architecture of the human tRNA ligase complex” (eLife, 2021)
# Target: T1, RTCB (Homo sapiens, UniProt Q9Y3I0)
# T1 construct: full length (505 residues), N-terminal His6 tag removed with TEV protease, expressed in Sf9 insect cells; model residues 3-505 with gaps
# T1 sequence (Q9Y3I0 1-505): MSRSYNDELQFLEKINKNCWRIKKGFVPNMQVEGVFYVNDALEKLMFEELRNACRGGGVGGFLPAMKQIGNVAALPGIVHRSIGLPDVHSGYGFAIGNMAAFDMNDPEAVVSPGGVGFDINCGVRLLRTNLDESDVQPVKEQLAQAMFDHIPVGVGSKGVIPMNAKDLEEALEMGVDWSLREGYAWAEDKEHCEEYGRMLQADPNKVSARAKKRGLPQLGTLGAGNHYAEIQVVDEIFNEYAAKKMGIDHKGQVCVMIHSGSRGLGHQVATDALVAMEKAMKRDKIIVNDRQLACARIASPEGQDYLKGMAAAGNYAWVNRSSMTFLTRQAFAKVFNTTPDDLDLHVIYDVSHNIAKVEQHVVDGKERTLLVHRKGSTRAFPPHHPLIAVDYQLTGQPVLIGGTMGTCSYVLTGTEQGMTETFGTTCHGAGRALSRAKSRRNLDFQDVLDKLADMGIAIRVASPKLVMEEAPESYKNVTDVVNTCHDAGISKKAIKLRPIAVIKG
# Assay: X-ray crystal structure, […] Å
# Type: binding
# Details: two Co2+ ions in active site, crystallised at pH 5.5, 20 °C, 5 mM CoCl2, 0.5 mM GMP, non-covalent product-bound state
structure (smiles),measurement,value
Nc1nc2c(ncn2[C@@H]2O[C@H](COP(=O)(O)O)[C@@H](O)[C@H]2O)c(=O)[nH]1 [GMP],"X-ray crystal structure, 2.3 Å",crystal structure of human RTCB in complex with a GMP molecule and two divalent cobalt
